According to patent US10590078B2, “Sodium channel blockers” (Daewoong Pharmaceutical Co., Ltd., priority 2015, dated 2020):
pIC50: −log10 of the molar value.

target: human sodium ion channel 1.7 (hNav1.7) (Homo sapiens, UniProt Q15858); assay: Blocking effect against sodium ion channel Nav1.7, IonFlux16 auto patch clamp in hNav1.7 HEK293 cells; format: cell-based; settings: hNav1.7 HEK293 cells; inhibition of peak current after 50 seconds treatment; eight concentrations; read-out: IC50
Sequence (Q15858 whole entry): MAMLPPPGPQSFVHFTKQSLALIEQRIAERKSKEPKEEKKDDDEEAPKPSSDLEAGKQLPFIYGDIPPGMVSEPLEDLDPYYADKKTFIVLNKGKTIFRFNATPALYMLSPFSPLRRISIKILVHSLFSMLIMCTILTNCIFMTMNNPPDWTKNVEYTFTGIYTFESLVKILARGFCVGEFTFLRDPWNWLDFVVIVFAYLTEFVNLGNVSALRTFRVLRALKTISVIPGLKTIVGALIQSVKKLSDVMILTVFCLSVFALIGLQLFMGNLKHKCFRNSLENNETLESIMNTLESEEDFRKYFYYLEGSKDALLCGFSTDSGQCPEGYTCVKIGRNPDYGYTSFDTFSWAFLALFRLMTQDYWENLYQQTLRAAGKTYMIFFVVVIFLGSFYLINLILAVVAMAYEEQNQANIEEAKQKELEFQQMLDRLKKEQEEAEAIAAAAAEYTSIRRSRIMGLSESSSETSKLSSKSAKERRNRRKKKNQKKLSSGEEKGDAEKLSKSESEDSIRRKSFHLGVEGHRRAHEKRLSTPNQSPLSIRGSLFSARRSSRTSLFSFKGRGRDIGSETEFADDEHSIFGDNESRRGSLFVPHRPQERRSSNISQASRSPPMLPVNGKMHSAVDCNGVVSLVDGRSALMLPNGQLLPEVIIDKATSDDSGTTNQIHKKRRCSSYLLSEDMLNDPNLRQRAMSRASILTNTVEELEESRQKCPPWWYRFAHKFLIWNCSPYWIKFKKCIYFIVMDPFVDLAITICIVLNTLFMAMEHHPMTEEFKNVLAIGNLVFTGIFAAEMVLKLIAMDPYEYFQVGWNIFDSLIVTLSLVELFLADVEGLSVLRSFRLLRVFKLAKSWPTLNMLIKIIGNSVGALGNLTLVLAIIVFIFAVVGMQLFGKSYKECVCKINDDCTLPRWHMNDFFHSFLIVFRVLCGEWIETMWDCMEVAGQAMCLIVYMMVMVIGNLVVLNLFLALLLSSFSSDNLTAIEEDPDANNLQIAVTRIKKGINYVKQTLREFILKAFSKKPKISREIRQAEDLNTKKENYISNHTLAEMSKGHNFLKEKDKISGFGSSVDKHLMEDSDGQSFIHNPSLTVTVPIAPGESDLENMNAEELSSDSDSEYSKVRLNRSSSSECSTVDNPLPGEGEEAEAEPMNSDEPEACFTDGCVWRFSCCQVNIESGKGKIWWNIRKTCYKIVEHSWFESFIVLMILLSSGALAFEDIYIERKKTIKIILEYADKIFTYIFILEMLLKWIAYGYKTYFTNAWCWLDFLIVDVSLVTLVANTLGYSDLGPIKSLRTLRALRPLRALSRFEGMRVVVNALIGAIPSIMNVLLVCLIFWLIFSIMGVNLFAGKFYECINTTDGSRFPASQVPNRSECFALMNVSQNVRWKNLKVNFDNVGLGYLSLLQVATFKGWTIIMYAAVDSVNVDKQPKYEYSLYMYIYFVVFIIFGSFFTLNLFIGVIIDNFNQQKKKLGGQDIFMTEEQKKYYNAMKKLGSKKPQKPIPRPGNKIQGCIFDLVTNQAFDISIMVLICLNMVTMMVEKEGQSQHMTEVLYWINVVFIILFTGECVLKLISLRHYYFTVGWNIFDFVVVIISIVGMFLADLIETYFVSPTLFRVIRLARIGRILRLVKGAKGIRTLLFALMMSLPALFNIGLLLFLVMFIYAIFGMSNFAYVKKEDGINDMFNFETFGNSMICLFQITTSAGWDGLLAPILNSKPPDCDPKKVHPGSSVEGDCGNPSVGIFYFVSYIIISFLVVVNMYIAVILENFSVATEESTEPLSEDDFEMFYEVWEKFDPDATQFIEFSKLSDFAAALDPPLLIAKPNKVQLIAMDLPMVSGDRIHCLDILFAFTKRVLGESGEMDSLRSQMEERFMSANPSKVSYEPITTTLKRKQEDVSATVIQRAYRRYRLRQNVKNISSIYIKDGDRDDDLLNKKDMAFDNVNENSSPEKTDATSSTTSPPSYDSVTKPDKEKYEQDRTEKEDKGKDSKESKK

Compound	pIC50
CN(C)S(=O)(=O)NC(=O)c1cc(Cl)c(-n2nc(-c3ccc(Cl)cc3F)c3cc(Cl)ccc32)cc1F [Example 138, 5-chloro-4-(5-chloro-3-(4-chloro-2-fluorophenyl)-1H-indazol-1-yl)-N—(N,N-dimethylsulfamoyl)-2-fluorobenzamide]	7.00
CN(C(=O)c1cc(Cl)c(-n2nc(-c3ccc(Cl)cc3F)c3cc(Cl)ccc32)cc1F)S(C)(=O)=O [Example 139, 5-chloro-4-(5-chloro-3-(4-chloro-2-fluorophenyl)-1H-indazol-1-yl)-2-fluoro-N-methyl-N-(methylsulfonyl)benzamide]	5.84
CS(=O)(=O)N(Cc1ccc2ccccc2c1)C(=O)c1cc(Cl)c(-n2nc(Cl)c3cc(O)ccc32)cc1F [Example 140, 5-chloro-4-(3-chloro-5-hydroxy-1H-indazol-1-yl)-2-fluoro-N-(methylsulfonyl)-N-(naphthalen-2-ylmethyl)benzamide]	< 5.00
CS(=O)(=O)N(Cc1ccc(F)cc1)C(=O)c1cc(Cl)c(-n2nc(Cl)c3cc(O)ccc32)cc1F [Example 141, 5-chloro-4-(3-chloro-5-hydroxy-1H-indazol-1-yl)-2-fluoro-N-(4-fluorobenzyl)-N-(methylsulfonyl)benzamide]	< 5.00
CS(=O)(=O)NC(=O)c1cc(Cl)c(-n2nc(-c3ccc(Cl)cc3F)c3cc(F)ccc32)cc1F [Example 142, 5-chloro-4-(3-(4-chloro-2-fluorophenyl)-5-fluoro-1H-indazol-1-yl)-2-fluoro-N-(methylsulfonyl)benzamide]	7.52
CS(=O)(=O)NC(=O)c1cc(Cl)c(-n2nc(-c3ccccc3F)c3cc(F)ccc32)cc1F [Example 143, 5-chloro-2-fluoro-4-(5-fluoro-3-(2-fluorophenyl)-1H-indazol-1-yl)-N-(methylsulfonyl)benzamide]	6.92
CS(=O)(=O)NC(=O)c1cc(Cl)c(-n2nc(-c3ccccc3Cl)c3cc(F)ccc32)cc1F [Example 144, 5-chloro-4-(3-(2-chlorophenyl)-5-fluoro-1H-indazol-1-yl)-2-fluoro-N-(methylsulfonyl)benzamide]	6.27
CS(=O)(=O)NC(=O)c1cc(Cl)c(-n2nc(-c3ccccc3C(F)(F)F)c3cc(F)ccc32)cc1F [Example 145, 5-chloro-2-fluoro-4-(5-fluoro-3-(2-(trifluoromethyl)phenyl)-1H-indazol-1-yl)-N-(methylsulfonyl)benzamide]	6.96
COc1ccccc1-c1nn(-c2cc(F)c(C(=O)NS(C)(=O)=O)cc2Cl)c2ccc(F)cc12 [Example 146, 5-chloro-2-fluoro-4-(5-fluoro-3-(2-methoxyphenyl)-1H-indazol-1-yl)-N-(methylsulfonyl)benzamide]	6.70
Cc1ccccc1-c1nn(-c2cc(F)c(C(=O)NS(C)(=O)=O)cc2Cl)c2ccc(F)cc12 [Example 147, 5-chloro-2-fluoro-4-(5-fluoro-3-(o-tolyl)-1H-indazol-1-yl)-N-(methylsulfonyl)benzamide]	7.22
CS(=O)(=O)NC(=O)c1cc(Cl)c(-n2nc(-c3cccc(F)c3)c3cc(F)ccc32)cc1F [Example 148, 5-chloro-2-fluoro-4-(5-fluoro-3-(3-fluorophenyl)-1H-indazol-1-yl)-N-(methylsulfonyl)benzamide]	7.05
CS(=O)(=O)NC(=O)c1cc(Cl)c(-n2nc(-c3cccc(Cl)c3)c3cc(F)ccc32)cc1F [Example 149, 5-chloro-4-(3-(3-chlorophenyl)-5-fluoro-1H-indazol-1-yl)-2-fluoro-N-(methylsulfonyl)benzamide]	7.40
CS(=O)(=O)NC(=O)c1cc(Cl)c(-n2nc(-c3cccc(C(F)(F)F)c3)c3cc(F)ccc32)cc1F [Example 150, 5-chloro-2-fluoro-4-(5-fluoro-3-(3-(trifluoromethyl)phenyl)-1H-indazol-1-yl)-N-(methylsulfonyl)benzamide]	6.74
COc1cccc(-c2nn(-c3cc(F)c(C(=O)NS(C)(=O)=O)cc3Cl)c3ccc(F)cc23)c1 [Example 151, 5-chloro-2-fluoro-4-(5-fluoro-3-(3-methoxyphenyl)-1H-indazol-1-yl)-N-(methylsulfonyl)benzamide]	7.10
